The values that follow come from patent publication US20040102454A1, “Phenylahistin and the phenylahistin analogs, a new class of anti-tumor compounds” (priority 1998, published 2004).

pIC50: −log10 of the molar value.

One assay concerns DMS273. Put plainly: HCC panel assay, sulforhodamine B. It counts as cell-based. The conditions noted are these: DMS273, Lung, (−)-PLH content 24.1%. How it is done:
(§1) The antitumor activity of PLH was evaluated by the Human Cancer Cell Line Panel (HCC panel) assay, see Yamori T., Jap. J Cancer Chemother., (1997), 24, 129-35. This HCC panel consists of 38 tumor cell lines including 7 lung cancer, 6 stomach, 6 colon, 5 ovary, 6 central nerve system, 5 breast, 2 kidney and 1 melanoma cell lines. Each tumor cell was seeded in 96-well tissue culture plates and incubated overnight. Various concentrations (5 doses; final 10^−4, 10^−5, 10^−6, 10^−7 and 10^−8 M) of PLH were added, and the cells were incubated for 48 hours. […] All mice were obtained from Japan SLC (Shizuoka, Japan), P388 leukemia cells were obtained from Dainippon Pharmaceuticals Inc. (Osaka, Japan), Lewis Lung Carcinoma from Riken Cell Bank (Tsukuba, Japan), and Colon 26 cells from the National Cancer Center, Japan (Tokyo, Japan).

The next assay deals with OVCAR-8. Put plainly: HCC panel assay, sulforhodamine B. It is filed as cell-based. The conditions noted are these: OVCAR-8, Ovary, (−)-PLH content 24.1%. How it is done: as §1
The test system of a further assay is HBC-5. As to the kind of experiment: HCC panel assay, sulforhodamine B. It counts as cell-based. As to conditions: HBC-5, Breast, (−)-PLH content 24.1%. The procedure:
as §1

In another assay the test system is MKN7. Put plainly: HCC panel assay, sulforhodamine B. It counts as cell-based. As to conditions: MKN7, Stomach, (−)-PLH content 24.1%. How it is done:
as §1

Another assay deals with 38 tumor cell lines. As to the kind of experiment: Human Cancer Cell Line Panel (HCC panel) assay, whole panel. It counts as cell-based. The conditions noted are these: (−)-PLH content 24.1%, read-out: GI50 values, range over 38 cell lines. The procedure: as §1
A further assay deals with Cell strain A431. As to the kind of experiment: Cell cycle inhibiting activity, flow cytometer and microscopic observation. It counts as cell-based, human. The procedure: Cell strain A431 derived from […] was used. EMEM culture medium containing 10% bovine fetus serum and 1% MEM nonessential amino acid solution (SIGMA M2025) was used to incubate A431 cells at 37° C. in an incubator saturated with 5% carbon dioxide gas and water vapor. The refined specimen of racemic phenylahistin obtained in EXAMPLE 1 was added to the cells in the log-growth phase and progression of the cell cycle was analyzed by flow cytometer and microscopic observation. The results, shown in Table 1, indicate that this phenylahistin was useful as a cell cycle inhibitor.

Assay [1] has as its system phosphocellulose-purified tubulin. Put plainly: Polymerization of purified tubulin (turbidity). It is filed as biochemical, bovine. How it is done:
Microtubule protein was prepared from bovine brain tissue by two cycles of assembly and disassembly according to the method of Tiwari, S. C. et al. Anal. Biochem, (1993), 215, 96-103. Tubulin was purified from microtubule protein by phosphocellulose chromatography see Algaier, J. et al. Biochim. Biophys. Acta, (1988), 954, 235-43, and tubulin purity was evaluated by polyacrylamide gel electrophoresis, as in Laemmli, U.K., Nature, (1970), […], 680-85. […] Protein concentrations were determined using the Coomassie® Protein Assay Reagent from Pierce (Rockford, Ill.).
Polymerization of microtubule protein was monitored by an increase in turbidity at 37° C. in microtubule assembly buffer containing 100 mM MES, 0.5 mM MgCl2, 1 mM EGTA and 1 mM GTP. See Johnson, K. A. et al., J. Mol. Biol., (1977), 117, 1-31. Polymerization of purified tubulin was measured using the same method except the microtubule assembly buffer contained 4 M glycerol. See Lee, J. C. et al., Biochemistry, (1975), 14, 5183-87. Microtubule protein and tubulin polymerization was initiated by a temperature shift from 0° C. to 37° C. and turbidity was measured on a DU-20 thermocontrolled spectrophotometer from Beckman (Fullerton, Calif.) at 360 nm. Drugs were dissolved in dimethyl sulfoxide (DMSO), which was used in all experiments at a final concentration of 2% (v/v).

The test system of assay [2] is Microtubule protein from bovine brain. As to the kind of experiment: Microtubule protein polymerization assay (turbidity). It counts as biochemical.

Turning to `C=CC(C)(C)c1[nH]cnc1/C=C1\NC(=O)[C@H](Cc2ccccc2)NC1=O` (racemic) [PLH, phenylahistin], the TGI – broadly, the concentration at which net growth stops – is above 100 µM in the assay with DMS273, 56 µM with OVCAR-8, above 100 µM with HBC-5 and above 100 µM with MKN7. For the same molecule, the pIC50 is 6.54 with DMS273 (Homo sapiens, DMS-273, read-out: GL50 (the source's name)); 6.28 with OVCAR-8 (Homo sapiens, read-out: GL50 (the source's name)); 6.22 in the assay with HBC-5 (Homo sapiens, HBC5, read-out: GL50 (the source's name)); 6.41 in the assay on MKN7 (Homo sapiens, MKN-7, read-out: GL50 (the source's name)). Also, the CC50 in the assay on DMS273 (Homo sapiens, DMS-273, read-out: LC50 (the source's name)) was above 100 µM; in the assay on OVCAR-8 (Homo sapiens, read-out: LC50 (the source's name)) it was above 100 µM; in the assay with HBC-5 (Homo sapiens, HBC5, read-out: LC50 (the source's name)) it was above 100 µM; with MKN7 (Homo sapiens, MKN-7, read-out: LC50 (the source's name)), above 100 µM. Further, the GI50 (commonly the concentration at which growth is held to half of that of the control) in the assay with 38 tumor cell lines lay within 0.23 to 40 µM. The “Inhibiting effect (cell cycle)” value in the assay with Cell strain A431 (Concentration 0.5 μg/ml) is “Absent (Absent: The cell cycle stopped at the G2/M phase in less than 10% of the cells.)”; in the assay on Cell strain A431 (Concentration 1.0 μg/ml) it was “Absent (Absent: The cell cycle stopped at the G2/M phase in less than 10% of the cells.)”; with Cell strain A431 (Concentration 2.0 μg/ml), “Slight (Slight: The cell cycle stopped at the G2/M phase in not less than 10% and less than 50% of the cells.)”; in the assay on Cell strain A431 (Concentration 4.0 μg/ml) it was “Slight (Slight: The cell cycle stopped at the G2/M phase in not less than 10% and less than 50% of the cells.)”; in the assay with Cell strain A431 (Concentration 8.0 μg/ml) it was “Present (Present: The cell cycle stopped at the G2/M phase in not less that 50% of the cells.)”; with Cell strain A431 (Concentration 32.0 μg/ml) it was “Present (Present: The cell cycle stopped at the G2/M phase in not less that 50% of the cells.)”.

Consider `C=CC(C)(C)c1[nH]cnc1/C=C1\NC(=O)[C@H](Cc2ccccc2)NC1=O` [(−)-phenylahistin], for which the “inhibition of tubulin polymerization compared with CLC” value in assay [1] is “as effective as CLC”. The “polymerization of microtubule protein” value in assay [2] (80 μM) is recorded as “completely inhibited”. Also, the “turbidity increase at high concentration” value in assay [2] (concentrations up to 200 μM) was “did not increase the turbidity”. For the same molecule, in assay [2] (microtubule protein 1.5 mg/ml (Table 4), read-out: IC50 for Microtubule Protein Polymerization), the pIC50 is 4.60.
